For one compound, pIC50 results are on record in ChEMBL document CHEMBL1250502, “An alignment independent 3D QSAR study of the antiproliferative activity of 1,2,4,5-tetraoxanes” (Eur J Med Chem, 2010).

Assay [1] can be described thus: Cytotoxicity against human Fem-X cells. In kind it is functional, cell-based. Conditions: fem-x.
The next assay has as its system HeLa. Nature of the assay: Cytotoxicity against human HeLa cells. It is filed as functional, cell-based. Conditions: hela.

Usually pIC50 stands for the negative decadic logarithm of the IC50, by convention in mol/L. As to `COC(=O)CC[C@@H](C)[C@H]1CC[C@H]2[C@@H]3CC[C@@H]4CC5(CC[C@]4(C)[C@H]3C[C@H](OC(C)=O)[C@]12C)OOC1(CCC(C)CC1)OO5` (stereo in doubt; 14), the results for the pIC50 (in assay [1]; in the assay on HeLa) were 4.6 and 5.3, respectively.
